Reference: patent publication US20260315483A1, “HETEROCYCLIC COMPOUNDS AS TRIGGERING RECEPTOR EXPRESSED ON MYELOID CELLS 2 AGONISTS AND METHODS OF USE” (VIGIL NEUROSCIENCE, INC., priority 2023, published 2026)

Biological target: T1, human TREM2 (Homo sapiens, UniProt Q9NZC2)
T1 construct: expressed in transfected cells; host or cells: HEK293T-hTREM2 cells (HEK cell line expressing human TREM2 and DAP12)
Experiment: In vitro measurement of TREM2 activity using cellular phosphorylation of spleen tyrosine kinase (Syk), AlphaLisa, HEK293T-hTREM2 cells
Format: cell-based
Details: HEK293T cells expressing human TREM2 and DAP12, 45 min at room temperature
Description: In Vitro Measurement of Triggering Receptor Expressed on Myeloid Cells 2 Activity Using Cellular Phosphorylation of Spleen Tyrosine Kinase (“Syk”) Assays
Measurement of TREM2 agonist potency was done using a HEK cell line expressing human TREM2 and DAP12 (HEK293T-hTREM2 cells). Binding of small molecules to, and activation of, TREM2 increases the phosphorylation of Syk. The resultant levels of Syk phosphorylation are measured using a commercial AlphaLisa reagent kit. To perform the assay, HEK-hTREM2 cells were plated at 14,000 cells per well in a 384 well plate, in 25 μL of complete growth media and incubated at 37° C., 5% CO2 for 20-24 hours.
Prior to the assay, test compounds were diluted in the 384 well plates in assay buffer and allowed to equilibrate for 30 minutes. Growth media was removed from cell plates by inversion on blotting paper, and 25 μL of test articles in assay buffer was added to cells. Cells were incubated for 45 minutes at room temperature. After 45 minutes, assay buffer was removed and 10 μL of lysis buffer was added. Plates were shaken for 20 minutes at 350 RPM at room temperature. After complete lysis, AlphaLisa reagents were added to the lysate, and fluourescence intensity was measured using a Perkin Elmer Envision plate reader. Intensities were used to generate a standard curve, and % activation was calculated. Curve fitting was performed using Prism v9 software, log(agonist) vs response—variable slope (four parameters), and EC50s were calculated from the curve fit.
The results presented in Tables D and D-2 have been generated with the in vitro assay described above. This assay may be used to test any of the compounds described herein to assess and characterize a compound's ability to act as an agonist of TREM2.

T1 sequence (Q9NZC2 19-230): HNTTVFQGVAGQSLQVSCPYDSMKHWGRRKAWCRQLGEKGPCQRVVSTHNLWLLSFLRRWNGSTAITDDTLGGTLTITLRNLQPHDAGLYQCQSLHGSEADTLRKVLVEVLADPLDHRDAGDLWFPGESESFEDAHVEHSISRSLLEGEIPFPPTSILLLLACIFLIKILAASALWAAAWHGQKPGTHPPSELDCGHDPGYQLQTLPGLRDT
T1 sequence (O43914 22-113 partner): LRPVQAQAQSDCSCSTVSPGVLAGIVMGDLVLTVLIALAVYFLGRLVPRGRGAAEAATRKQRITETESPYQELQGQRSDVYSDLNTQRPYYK

EC50 (Table D-2)	EC50 (Table D)	Compound
50 to 500 nM	–	C[C@@H]1CN(c2cc3c(c(C4CCC(C(F)(F)F)CC4)n2)CN(C)C3=O)C[C@H](c2cnn(C3CC3)c2)O1 (mixture of isomers) [compound 227, 6-[(2S,6R)-2-(1-cyclopropylpyrazol-4-yl)-6-methyl-morpholin-4-yl]-2-methyl-4-[4-(trifluoromethyl)cyclohexyl]-3H-pyrrolo[3,4-c]pyridin-1-one]
–	50 to 500 nM	CN(C)c1nc2nc(C3CCO[C@@H](c4cnn(C5CC5)c4)C3)nc(-c3cc(F)ccc3F)c2s1 (mixture of isomers) [compound 104, 7-(2,5-difluorophenyl)-N,N-dimethyl-5-[rac-(2R)-2-(1-cyclopropylpyrazol-4-yl)tetrahydropyran-4-yl]thiazolo[4,5-d]pyrimidin-2-amine]
–	3000 to 100000 nM	CN(C)c1nc2nc([C@@H]3CCO[C@@H](c4cnn(C5CC5)c4)C3)nc(-c3cc(F)c(Cl)cc3F)c2s1 (racemic) [compound 106, 7-(4-chloro-2,5-difluoro-phenyl)-N,N-dimethyl-5-[rac-(2R,4R)-2-(1-cyclopropylpyrazol-4-yl)tetrahydropyran-4-yl]thiazolo[4,5-d]pyrimidin-2-amine]
–	≤ 50 nM	CN(C)c1nc2nc(C3CCO[C@@H](c4cnn(C5CC5)c4)C3)nc(-c3ccc(F)c(F)c3F)c2s1 (stereo in doubt) [compound 107, 5-[(2R,4R)-2-(1-cyclopropylpyrazol-4-yl)tetrahydropyran-4-yl]-N,N-dimethyl-7-(2,3,4-trifluorophenyl)thiazolo[4,5-d]pyrimidin-2-amine]
–	50 to 500 nM	CN(C)c1nc2nc(C3CCO[C@@H](c4cnn(C5CC5)c4)C3)nc(-c3ccc(F)c(F)c3F)c2s1 (stereo in doubt) [compound 108, 5-[(2R,4S)-2-(1-cyclopropylpyrazol-4-yl)tetrahydropyran-4-yl]-N,N-dimethyl-7-(2,3,4-trifluorophenyl)thiazolo[4,5-d]pyrimidin-2-amine]
–	50 to 500 nM	CN(C)c1nc2nc([C@H]3CCO[C@@H](c4ccc(=O)n(C)c4)C3)nc(-c3ccc(F)cc3F)c2s1 (stereo in doubt) [compound 119, 5-[(2R,4S)-4-[7-(2,4-difluorophenyl)-2-(dimethylamino)thiazolo[4,5-d]pyrimidin-5-yl]tetrahydropyran-2-yl]-1-methyl-pyridin-2-one]
–	≤ 50 nM	CN(C)c1nc2nc([C@@H]3CCO[C@H](c4ccc(=O)n(C)c4)C3)nc(-c3ccc(F)cc3F)c2s1 (stereo in doubt) [compound 120, 5-[(2S,4R)-4-[7-(2,4-difluorophenyl)-2-(dimethylamino)thiazolo[4,5-d]pyrimidin-5-yl]tetrahydropyran-2-yl]-1-methyl-pyridin-2-one]
–	50 to 500 nM	CN(C)c1nc2nc([C@H]3CCO[C@H](c4ccc(=O)n(C)c4)C3)nc(-c3ccc(F)cc3F)c2s1 (stereo in doubt) [compound 121, 5-[(2S,4S)-4-[7-(2,4-difluorophenyl)-2-(dimethylamino)thiazolo[4,5-d]pyrimidin-5-yl]tetrahydropyran-2-yl]-1-methyl-pyridin-2-one]
–	≤ 50 nM	CN(C)c1nc2nc(N3CCO[C@@H](c4cnn(C5CC5)c4)C3)nc(-c3ccc(F)cc3F)c2s1 [compound 100, 5-[(2S)-2-(1-cyclopropylpyrazol-4-yl)morpholin-4-yl]-7-(2,4-difluorophenyl)-N,N-dimethyl-thiazolo[4,5-d]pyrimidin-2-amine]
–	50 to 500 nM	CN(C)c1nc2nc(N3CCO[C@H](c4cnn(C5CC5)c4)C3)nc(-c3ccc(F)cc3F)c2s1 [compound 101, 5-[(2R)-2-(1-cyclopropylpyrazol-4-yl)morpholin-4-yl]-7-(2,4-difluorophenyl)-N,N-dimethyl-thiazolo[4,5-d]pyrimidin-2-amine]
–	≤ 50 nM	C[C@@H]1CN(c2nc(-c3ccc(C(F)F)cc3F)c3sc(N(C)C)nc3n2)C[C@H](c2cnn(C3CC3)c2)O1 [compound 102, 5-[(2S,6R)-2-(1-cyclopropylpyrazol-4-yl)-6-methyl-morpholin-4-yl]-7-[4-(difluoromethyl)-2-fluoro-phenyl]-N,N-dimethyl-thiazolo[4,5-d]pyrimidin-2-amine]
–	50 to 500 nM	CN(C)c1nc2nc([C@H]3CCO[C@@H](c4cnn(C5CC5)c4)C3)nc(-c3ccc(C(F)F)cc3F)c2s1 [compound 103, 5-[(2R,4S)-2-(1-cyclopropylpyrazol-4-yl)tetrahydropyran-4-yl]-7-[4-(difluoromethyl)-2-fluoro-phenyl]-N,N-dimethyl-thiazolo[4,5-d]pyrimidin-2-amine]
–	≤ 50 nM	CN(C)c1nc2nc([C@H]3CCO[C@@H](c4cnn(C5CC5)c4)C3)nc(-c3cc(F)c(Cl)cc3F)c2s1 [compound 105, 7-(4-chloro-2,5-difluoro-phenyl)-N,N-dimethyl-5-[(2R,4S)-2-(1-cyclopropylpyrazol-4-yl)tetrahydropyran-4-yl]thiazolo[4,5-d]pyrimidin-2-amine]
–	≤ 50 nM	C[C@@H]1CN(c2nc(-c3ccc(F)cc3F)c3sc(N4CCC[C@H]4C)nc3n2)C[C@H](c2cnn(C3CC3)c2)O1 [compound 109, (2S,6R)-2-(1-cyclopropyl-1H-pyrazol-4-yl)-4-(7-(2,4-difluorophenyl)-2-((R)-2-methylpyrrolidin-1-yl)thiazolo[4,5-d]pyrimidin-5-yl)-6-methylmorpholine]
–	≤ 50 nM	Cc1ccc(-c2nc(N3C[C@@H](C)O[C@@H](c4cnn(C5CC5)c4)C3)nc3nc(N(C)C)sc23)c(F)c1 [compound 110, 5-[(2S,6R)-2-(1-cyclopropylpyrazol-4-yl)-6-methyl-morpholin-4-yl]-7-(2-fluoro-4-methyl-phenyl)-N,N-dimethyl-thiazolo[4,5-d]pyrimidin-2-amine]
–	500 to 3000 nM	C[C@@H]1CN(c2cc(-c3ccc(F)cc3F)c3sccc3n2)C[C@H](c2cnn(C3CC3)c2)O1 [compound 111, (2S,6R)-2-(1-cyclopropylpyrazol-4-yl)-4-[7-(2,4-difluorophenyl)thieno[3,2-b]pyridin-5-yl]-6-methyl-morpholine]
–	≤ 50 nM	C[C@@H]1CN(c2nc(-c3ccc(F)cc3F)c3sc(N4CCC[C@@H]4C)nc3n2)C[C@H](c2cnn(C3CC3)c2)O1 [compound 112, (2S,6R)-2-(1-cyclopropylpyrazol-4-yl)-4-[7-(2,4-difluorophenyl)-2-[(2S)-2-methylpyrrolidin-1-yl]thiazolo[4,5-d]pyrimidin-5-yl]-6-methyl-morpholine]
–	≤ 50 nM	CC(C)c1nc2nc(N3C[C@@H](C)O[C@@H](c4cnn(C5CC5)c4)C3)nc(-c3ccc(F)cc3F)c2s1 [compound 113, (2S,6R)-2-(1-cyclopropyl-1H-pyrazol-4-yl)-4-(7-(2,4-difluorophenyl)-2-isopropylthiazolo[4,5-d]pyrimidin-5-yl)-6-methylmorpholine]
–	≤ 50 nM	CCCc1nc2nc(N3C[C@@H](C)O[C@@H](c4cnn(C5CC5)c4)C3)nc(-c3ccc(F)cc3F)c2s1 [compound 114, (2S,6R)-2-(1-cyclopropyl-1H-pyrazol-4-yl)-4-(7-(2,4-difluorophenyl)-2-propylthiazolo[4,5-d]pyrimidin-5-yl)-6-methylmorpholine]
–	500 to 3000 nM	Cc1cc([C@@H]2C[C@H](c3nc(-c4ccc(F)cc4F)c4sc(N(C)C)nc4n3)CCO2)ccn1 [compound 115, 7-(2,4-difluorophenyl)-N,N-dimethyl-5-[(2S,4R)-2-(2-methyl-4-pyridyl)tetrahydropyran-4-yl]thiazolo[4,5-d]pyrimidin-2-amine]
–	≤ 50 nM	Cc1cc([C@H]2C[C@@H](c3nc(-c4ccc(F)cc4F)c4sc(N(C)C)nc4n3)CCO2)ccn1 [compound 116, 7-(2,4-difluorophenyl)-N,N-dimethyl-5-[(2R,4S)-2-(2-methyl-4-pyridyl)tetrahydropyran-4-yl]thiazolo[4,5-d]pyrimidin-2-amine]
–	50 to 500 nM	C[C@@H]1CN(c2nc(-c3ccc(C(F)(F)F)cc3)c3sc(N(C)C)nc3n2)C[C@H](c2cnn(C3CC3)c2)O1 [compound 117, 5-[(2S,6R)-2-(1-cyclopropyl-pyrazol-4-yl)-6-methyl-morpholin-4-yl]-N,N-dimeth-yl-7-[4-(trifluoromethyl)-phenyl]thiazolo[4,5-d]pyr-imidin-2-amine]
–	500 to 3000 nM	CC(C)Oc1nc2nc(N3C[C@@H](C)O[C@@H](c4cnn(C5CC5)c4)C3)nc(-c3ccc(C(F)(F)F)cc3F)c2s1 [compound 118, (2S,6R)-2-(1-cyclopropylpyrazol-4-yl)-4-[7-[2-fluoro-4-(trifluoromethyl)-phenyl]-2-isopropoxy-thiazolo[4,5-d]pyrimidin-5-yl]-6-methyl-morpholine]
–	≤ 50 nM	Cc1cc([C@H]2CN(c3nc(-c4ccc(F)cc4F)c4sc(N(C)C)nc4n3)C[C@@H](C)O2)ccn1 [compound 123, 7-(2,4-difluorophenyl)-N,N-dimethyl-5-[(2R,6S)-2-methyl-6-(2-methyl-4-pyridyl)morpholin-4-yl]thiazolo[4,5-d]pyrimidin-2-amine]
